Counter-ions that a name gives are not always drawn. Like-named read-outs stand apart in the source and are kept apart here.
Assays:
NMDA receptor [1] = molecular target: T1, NMDA receptor (Mus musculus, UniProt P35438); assay: Pentylenetetrazol (PTZ)-induced convulsions; format: in vivo; details: ip, 0.25 h, i.p., PTZ 90 mg/kg i.p., read-out: PTZ ID50
T1 construct: from tissue; host or cells: living mice (albino Swiss males for NMDA and PTZ tests, NMR females for MES)
Procedure: (§1) To assess NMDA receptor antagonistic properties of the tested agents by assessing anticonvulsive effects. Additionally the role of organic acid transporters in the elimination from the brain of tested agents was assessed by using an inhibitor, Probenicid, on the duration of anticonvulsive activity.
(§2) Male albino Swiss mice (19-21 g) housed 10-15 per cage were used for the NMDA lethality test (Leander et al., 1988). For pentylenetetrazol (PTZ)-induced convulsions male albino Swiss mice (25-34 g.) housed 40 per cage (58×38×20 cm) were used while in the maximal electroshock (MES) and motor impairment tests NMR female mice (18-28 g) housed 5 per cage were employed. All animals were kept with water and food ad libittum under a 12-h light-dark cycle (light on at 6 a.m.), and at a controlled temperature (20°±0.5° C.). All experiments were performed between 10 a.m. and 5 p.m. Tested agents were injected 15 min. i.p before the induction of convulsions if not stated otherwise (see below). Mrz 2/502 was dissolved in saline added with NaOH. Most other agents were dissolved in the following solution: 0.606 g Tris; 5.0 g. glucose; 0.5 g. Tween 80; and 95 ml water. The choline and tetramethylammonium salts were dissolved in distilled water.
Pentylenetetrazol was injected at a dose of 90 mg/kg (i.p). The presence of general tonic convulsions was then scored for 30 min as this parameter is more sensitive to NMDA receptor antagonists than clonic convulsions. The pharmacological end-point was taken as the presence of tonus in the hind limbs with stretching.

[2] = In vivo systemic and / or CNS availability
NMDA receptor [3] = molecular target: T1, NMDA receptor; assay: Maximal electroshock (MES)-induced tonic convulsions; format: in vivo; details: i.p.; for MES ID50 / ED50: 15 min before induction; for ED50: mouse, ip, 0.25 h, read-out: MES ID50
Procedure: as §1, §2
(§3) MES (100 Hz, 0.5 sec shock duration, 50 mA shock intensity, 0.9 ms impulse duration, Ugo Basile) was applied through corneal electrodes. The presence of tonic convulsions was scored (tonic extension of hind paws with minimum angle to the body of 90°). In an additional experiment mice were injected with Probenicid (200 mg/kg) 30 min before administration of the tested agents to assess the role of organic acid transport in elimination (duration of action). The aim was to obtain ED50 s for all parameters scored using the Litchfield Wilcoxon (1949) test for quantal dose responses.

[4] = molecular target: T2, glycineB site of the NMDA receptor (rat cortical membranes) (Rattus norvegicus, UniProt P35439); assay: [3H]5,7-DCKA binding assay; details: 10 nM [3H]5,7-DCKA
T2 construct: The cortex was dissected and homogenised in 20 volumes of ice-cold 0.32M sucrose; from tissue; host or cells: brain cortex membranes of male Sprague-Dawley rats
Procedure: Tissue preparation was performed according to Foster and Wong (1987). Male Sprague-Dawley rats (200-250g) were decapitated and their brains were removed rapidly. The cortex was dissected and homogenised in 20 volumes of ice-cold 0.32M sucrose using a glass-Teflon homogenizer. The homogenate was centrifuged at 1000×g for 10 min. The pellet was discarded and the supernatant centrifuged at 20,000×g for 20 min. The resulting pellet was resuspended in 20 volumes of distilled water and centrifuged for 20 min at 8000×g. Then the supernatant and the buffy coat were centrifuged three times (48,000× g for 20 min) in the presence of 5 mM Tris-HCl, pH 7.4. All centrifugation steps were carried out at 4° C. After resuspension in 5 volumes of 5 mM Tris-HCl, pH 7.4 the membrane suspension was frozen rapidly at -80° C. until the day of assay. On the day of assay the membranes were thawed and washed four times by resuspension in 5 mM Tris-HCl, pH 7.4 and centrifugation at 48,000× g for 20 min. The final pellet was suspended in assay buffer.
The amount of protein in the final membrane preparation was determined according to the method of Lowry (1951) with some modifications (Hartfree, 1972). 50 μl of Protein samples (in triplicates) were diluted to 1 ml with distilled water and treated with 0.9 ml of a solution containing 2 g potassium sodium tartrate and 10 g Na2 CO3 in 500 ml 1N NaOH and 500ml water. Blank and standard (with bovine serum albumin) were set up in the same way. The tubes were placed in a water bath at 50° C. for 10 min. and cooled at room temperature. 100 μl of a solution containing 2 g potassium sodium tartrate and 1 g CuSO4 x 5 H2 O in 90 ml water and 10 ml 1N NaOH were added. The samples were left at room temperature for at least 10 min., then 3 ml of Folin-Ciocalteu reagent (1 ml of reagent diluted with 15 ml water) was added rapidly during mixing. The tubes were again heated at 50° C. for 10 min. and cooled to room temperature. Absorbencies were then read in 1 cm cuvets at 650 nm. The final protein concentration used for our studies was between 100 and 250 μg/ml.
Incubation in both binding assays was terminated using a Millipore filter system. The samples, all in triplicate, were rinsed three times with 2.5 ml ice cold assay buffer over glass fibre filters obtained from Schleicher & Schuell under a constant vacuum. Following separation and rinse the filters were placed into scintillation liquid (5 ml; Ultima Gold) and radioactivity retained on the filters was determined by using conventional liquid scintillation counter (Hewlett Packard, Liquid Scintillation Analyser). `Total binding` was the absolute amount of radioligand bound in the absence of any additives whereas `non-specific` binding was determined in the presence of a high concentration of competitor.
[^3 H]5,7-DCKA binding assay
Experiments were performed according to the methods modified from previous groups (Canton et al., 1991; Yoneda et al., 1993). Membranes were suspended and incubated in 10 mM Tris-HCl, pH 7.4. Incubation time was 45 min at 4° C. Non-specific binding of [^3 H]5,7-DCKA was defined by the addition of unlabeled glycine at 0.1 mM. The stop-solution contained 10 mM Tris-HCl and 10 mM magnesium sulphate, pH 7.4. Filtration was performed as rapidly as possible. Displacement experiments were performed with a fixed [^3 H]5,7-DCKA concentration of 10 nM. Test compounds were diluted in water or DMSO and added in at least 5 different concentrations.

NMDA receptor [5] = molecular target: T3, NMDA receptor (Rattus norvegicus, UniProt P35439); assay: Patch clamp, inward currents to NMDA in cultured superior colliculus neurones; format: cell-based; details: NMDA 200 μM, glycine 1 μM
T3 construct: endogenous in cells
Procedure: Cells were mechanically dissociated in 0.05% DNAase / 0.3% ovomucoid (Sigma) following a 15 minute pre-incubation with 0.66% trypsin / 0.1% DNAase (Sigma). The dissociated cells were then centrifuged at 18G for 10 minutes, resuspended in minimum essential medium (Gibco) and plated at a density of 200,000 cells cm onto poly-L-lysine (Sigma)-precoated plastic petri dishes (Falcon). The cells were nourished with NaHCO3 /HEPES-buffered minimum essential medium supplemented with 5% foetal calf serum and 5% horse serum (Gibco) and incubated at 37° C. with 5%CO2 at 95% humidity. The medium was exchanged completely following inhibition of further glial mitosis with cytosine-β-D-arabinofuranoside (20 μM Sigma) after about 7 days in vitro. Thereafter the medium was exchanged partially twice weekly. […] Moreover, the relatively small neurones (soma 15-20 μm .phi.) are ideally suited to minimise problems of buffered diffusion for concentration clamp experiments.
Patch clamp recordings were made from these neurones with polished glass electrodes (4-6 m.OMEGA.) in the whole cell mode at room temperature (20°-22° C.) with the aid of an EPC-7 amplifier (List). Test substances were applied by switching channels of a custom made fast superfusion system with a common outflow (10-20 ms exchange times). The contents of the intracellular solution were as follows (mM): CsCl (120), TEACl (20), EGTA (10), MgCl2 (1), CaCl2 (0.2), glucose (10), ATP (2), cAMP (0.25); pH was adjusted to 7.3 with CsOH or HCl. The extracellular solutions had the following basic composition (mM): NaCl (140), KCl (3), CaCl2 (0.2), glucose (10), HEPES (10), sucrose (4.5), tetrodotoxin (TTX 3*10-4). For most experiments glycine (1 μM) was present in all solutions. Experiments to test the glycine-dependence of the tricyclic "pyrido-phtalazin diones" were performed in the continuous presence of increasing concentrations of glycine (1-10 μM).
This effect was mediated at the glycineB site as evidenced by the parallel shift in the concentration-response curves in the presence of increasing glycine concentrations. Thus the Kbs of Mrz 2/502 as assessed according to the Cheng-Prusoff relationship were similar in glycine 1, 3 and 10 μM (80, 124 and 118 nM respectively). […] Choline derivatives had similar potencies to the free acids in vitro (Table14b).

NMDA receptor [6] = molecular target: T1, NMDA receptor; assay: NMDA-induced convulsions / lethality test; format: in vivo; details: ip, 0.25 h, i.p., 15 min before induction, read-out: NMDA ID50
Procedure: as §1, §2
In the NMDA-induced convulsions test in mice, a dose-response relationship for NMDA was first performed to determine the ED97 dose which was then used for testing of antagonistic properties. After injection of the ED97 dose of NMDA the animals were placed in a small cage (20×28×14 cm) and observed for 20 min. Death preceded by clonic convulsions and by tonic seizures was the pharmacological end-point.

organic acid transport = assay: Duration of anticonvulsive action with and without probenecid; format: in vivo, mouse; details: listed as 2/570
Procedure: as §1, §2, §3
Moreover it seems that choline salts have a longer duration of action. Probenecid injection prolonged considerably the duration of anticonvulsive action of all agents tested. For example the half lives of 2/514 and 2/570 were around 40 and 80 minutes respectively in the absence of probenicid. In the presence of probenicid the half lives were prolonged to around 180 and 210 minutes respectively. Thus, it seems that organic acids transport in the choroid plexus out of the brain plays an important role in the short duration of action of the compounds tested..

AMPA = assay: Microelectrophoretic application of AMPA to spinal neurones in vivo; details: i.v., responses of single rat spinal neurones
Procedure: (§4) The ability of these glycineB antagonists to act as NMDA receptor antagonists in vivo was assessed using i.v. administration against responses of single neurones in the rat spinal cord to microelectrophoretic application of AMPA and NMDA.

NMDA receptor [7] = molecular target: T3, NMDA receptor; assay: Microelectrophoretic application of NMDA to spinal neurones in vivo; details: rat, iv, responses of single rat spinal neurones; read-out: Microelectrophoretic NMDA ID50
Procedure: as §4

[8] = peak currents, read-out: Peak NMDA IC50
[9] = plateau (steady-state) currents, read-out: Plateau NMDA IC50

| in vivo systemic and / or CNS availability versus associated class I compounds [2] | IC50 [4] | Compound | ED50 (NMDA receptor [1]) | activity in the MES test (NMDA receptor [3]) | MES ID50 (NMDA receptor [3]; listed as 499, 15 min) | IC50 (NMDA receptor [5]; [8]) | IC50 (NMDA receptor [5]; [9]) | ED50 (NMDA receptor [3]) | ED50 (NMDA receptor [6]) | half life of anticonvulsive action (organic acid transport; absence of probenecid) | half life of anticonvulsive action (organic acid transport; presence of probenecid 200 mg/kg, 30 min before) | Microelectrophoretic AMPA ID50 (AMPA) | ED50 (NMDA receptor [7]) | MES ID50 (NMDA receptor [3]; listed as 570, 15 min) |
| --- | --- | --- | --- | --- | --- | --- | --- | --- | --- | --- | --- | --- | --- | --- |
| much better | 16 µM | O=c1[nH]nc(O)c2c1cc1ccccc1[n+]2[O-] [Mrz 2/499, 4-hydroxy-1-oxo-1,2-dihydro-pyridazino[4,5-b]-quinoline 5-oxide] | 18.6 mg/kg | effective | 87.0 mg/kg | 51.2 µM | 13.8 µM | – | – | – | – | – | – | – |
| – | – | O=c1[nH][nH]c(=O)c2nc3cc(Br)c(Cl)cc3cc12 [Mrz 2/538] | > 100 mg/kg | – | – | 93.9 µM | 2.5 µM | > 60 mg/kg | 106 mg/kg | – | – | – | – | – |
| – | – | O=c1[nH][nH]c(=O)c2nc3cc(Cl)c(Br)cc3cc12 [Mrz 2/539] | > 100 mg/kg | – | – | 5.3 µM | 0.7 µM | > 60 mg/kg | > 100 mg/kg | – | – | – | – | – |
| – | – | O=c1[nH][nH]c(=O)c2nc3ccccc3cc12 [Mrz 2/585] | 59 mg/kg | – | – | 65.9 µM | 19.1 µM | > 100 mg/kg | 58.9 mg/kg | – | – | – | – | – |
| – | – | O=c1[nH]nc(O)c2c1cc1cc(Br)ccc1[n+]2[O-] [Mrz 2/570, 8-bromo-4-hydroxy-1-oxo-1,2-dihydropyridazino[4,5-b]-quinoline 5-oxide choline salt] | – | – | – | 0.6 µM | 0.1 µM | – | – | ~1.33 h | ~3.5 h | > 16.0 mg/kg | 4.5 mg/kg | 12.8 mg/kg |

From patent US5776935A, “Pyrido-phtalazin diones and their use against neurological disorders associated with excitotoxicity and malfunctioning of glutamatergic neurotransmission” (Merz & Co. GmbH & Co., priority 1996, dated 1998)
